Patent publication US9925198B2, “Pharmaceutical composition for preventing or treating hearing loss, comprising carbenoxolone or its pharmaceutically acceptable salts as effective compound” (AJOU UNIVERSITY INDUSTRY-ACADEMIC COOPERATION FOUNDATION, priority 2015, dated 2018)
Several values for one entry are separate records, joined by “and”; a condition that tells them apart may be missing. Equal entries are not always repeated. Entries after “also recorded” stand apart in the source; their conditions may differ. Where two headings read alike, the source gives them in different places.

Assays:
[1] = test system: auditory outer hair cells; assay: Scanning electron microscope (SEM) analysis of cochlea, auditory outer hair cell damage; format: in vivo, SD-rat; conditions: basal turn (32 kHz) and middle turn (16 kHz)
Description: Also, degrees of loss and damage on auditory cells at the basal turn (32 kHz) and the middle turn (16 kHz) in cochlea were confirmed by using a scanning electron microscope (SEM) to analyze the shape of cochlea.

[2] = test system: auditory sensory hair cell stereocilia; assay: Phalloidin staining of auditory sensory hair cell stereocilia in cochlea; format: in vivo, SD-rat; conditions: basal turn (32 kHz) and middle turn (16 kHz)
Description: Phalloidin staining was performed on auditory sensory hair cell stereocilia markers of the SD-rats administered with drugs by using the method described above to confirm degrees of loss or damage on auditory cells at sites of the basal turn (32 kHz) and the middle turn (16 kHz).

[3] = test system: ototoxic hearing loss induced by cisplatin; assay: Auditory brainstem response (ABR) test, hearing threshold in rats with cisplatin-induced ototoxic hearing loss; format: in vivo, SD-rat; conditions: for hearing threshold (ABR) at 16 kHz / hearing threshold (ABR) at 32 kHz: measured 5 days after; for hearing threshold (ABR) at 16 kHz: tone burst 16 kHz; for hearing threshold (ABR) at 32 kHz: tone burst 32 kHz
Description: Auditory acuity was evaluated by performing an auditory brainstem response (ABR) test on the SD-rat before and after the drug administration. The ABR test was determines the minimum stimuli intensity (dB) that evokes the waveform of wave V by providing tone burst of 16 kHz and 32 kHz using a TDT ABR device as a hearing threshold, and the auditory acuities were measured 1 day before the drug administration and 5 days after the drug administration.

[4] = test system: cisplatin-takers; conditions: cited from earlier work
[5] = cisplatin 16 mg/kg + 18α-GA 100 mg/kg
[6] = cisplatin 16 mg/kg i.p. once + 18α-GA 100 mg/kg daily 2 days before and after cisplatin
[7] = cisplatin 16 mg/kg + carbenoxolone sodium 50 mg/kg, vs cisplatin alone
[8] = cisplatin 16 mg/kg i.p. once + carbenoxolone sodium 50 mg/kg daily 2 days before and after cisplatin
[9] = cisplatin alone 16 mg/kg, compared to control group

For `CC1(C)[C@@H](O)CC[C@]2(C)[C@H]3C(=O)C=C4[C@H]5C[C@@](C)(C(=O)O)CC[C@]5(C)CC[C@@]4(C)[C@]3(C)CC[C@@H]12` [18α-GA, 18α-glycyrrhetinic acid], the “damage prevention effect (SEM, FIG. 4)” value [1, 5] was “not confirmed”, the “damage prevention effect (phalloidin staining, FIG. 3)” value [2, 5] was “not exhibited” and the “hearing thresholds compared with the cisplatin-treated group” value ([3]; cisplatin 16 mg/kg + 18α-GA 100 mg/kg, 16 kHz and 32 kHz) was “no significant difference; also recorded: did not show significant difference”. For the same molecule, the “hearing threshold (ABR) at 16 kHz” value [3, 6] was 49.3±4.8 dB and 46.2±4.1 dB and the “hearing threshold (ABR) at 32 kHz” value [3, 6] was 46.2±4.1 dB.
With `CC1(C)[C@@H](OC(=O)CCC(=O)O)CC[C@]2(C)[C@H]3C(=O)C=C4[C@@H]5C[C@@](C)(C(=O)O)CC[C@]5(C)CC[C@@]4(C)[C@]3(C)CC[C@@H]12` [carbenoxolone sodium] the “preservation of outer hair cells (SEM, FIG. 4)” value [1, 7] was “significantly preserved”, the “preservation of outer hair cells (phalloidin staining, FIG. 3)” value [2, 7] was “significantly preserved” and the “hearing threshold (ABR) at 16 kHz” value [3, 8] was 26.3±7.5 dB. The “hearing threshold (ABR) at 32 kHz” value [3, 8] was 28.8±4.8 dB.
In the case of `N.N.[Cl][Pt][Cl]` [cisplatin], the “auditory impairment occurrence frequency” value ([4]; children) is listed as “about 50%”, the “auditory impairment occurrence frequency” value ([4]; cisplatin-takers) is listed as “about 30%” and the “auditory outer hair cell damage (SEM, FIG. 4)” value [1, 9] is listed as “damages on auditory outer hair cells were observed in numbers; also recorded: a number of auditory outer hair cell damages were observed”. For the same molecule, the “stereocilia damage (phalloidin staining, FIG. 3)” value [2, 9] was “a number of stereocilia damages were observed”.
